Measured values as given in patent publication US12187715B2, “Small molecule activators of Tie-2” (EyePoint Pharmaceuticals, Inc., priority 2019, dated 2025).
Values joined by “and” are separate entries in the source; they are usually repeats but may differ in a detail not shown here. Identical values can stand only once. “Also recorded” adds a separate entry of the source. Marks after values point to notes of the source that are not given here.

Experiments:
[1] = HPLC purity analyses of aqueous solutions over time at room temperature (chemical stability); assay type: physicochemical
[2] = Solubility testing in water by portionwise addition until saturation; assay type: physicochemical; conditions: for Amount (g) of compound added until saturation: added portionwise to 10 mL water; for Physical appearance: after portionwise addition to 10 mL water; for Filtration: filtration of the sample attempted after stirring overnight; for solubility at 4 weeks: pH 7, aqueous buffer, 50% dilution with water, adjusted to pH 7, T = 4 weeks; for solubility at 0 weeks: estimated from weight added; for solubility: Conclusions: suspensions stirred overnight, filtered and analyzed by HPLC, initial
Protocol: The solubility of compounds 2-4 was determined by portionwise addition of the compounds to water until saturation was obtained. Water (10 mL) was added to a 20-mL vial. About 100 mg of Compound 2 was added. The suspension was stirred at room temperature for 20 minutes until the contents became a clear solution. Compound 2 (˜100 mg portionwise) was added repeatedly with 30 min stirring time between the additions. Once a suspension was obtained after continuous stirring for 2 hours, the suspension was stirred overnight. The same procedure was used for the suspension preparations of Compound 3 and Compound 4.
After stirring overnight, filtration of each sample was attempted.
An aliquot of the suspension of Compound 2 was filtered through a 0.22 micron inline syringe filter.
About 1 mL of the aqueous solutions prepared above was diluted with water by 50%. The pH of the 50% diluted solutions was adjusted to pH 7 either by 0.1 N HCl or by 0.1 N NaOH. Solubility values for the three compounds in the solutions/suspensions before and after dilution are given in the in TABLE 3.
The solubility of Compounds 2-4 was determined by portionwise addition of the compounds to water until saturation was obtained. After stirring overnight, the suspensions were filtered and analyzed by HPLC. […] The solubility of Compound 3 was >200 mg/mL. The absolute solubility of Compound 3 was not determined because in the course of analysis, the solution of Compound 3 became too viscous to stir. […] The 50% diluted solutions of Compounds 2-4 were not viscous, and the compounds remained in solution for 4 weeks. […] All of the diluted solutions were easily syringable over 4 weeks' time.

[3] = Physical stability (appearance) of the aqueous solutions standing at room temperature; assay type: physicochemical; conditions: for Gelation or precipitation of undiluted solution: throughout the 4-week study period (Compound 2: over 5 weeks); for Appearance of solution: undiluted
phospho-Akt1 (pAkt) = test: Phospho-Akt activation assay in human umbilical vein endothelial cells (Western blot); assay type: cell-based; conditions: for Relative potencies for activation of pAkt: HUVECs, 3, 10 and 30 μM
Protocol: The ability of the small molecule analogues as shown in EXAMPLES 1-3 to stimulate production of phospho-Akt1 (pAkt) was tested. Akt plays a critical role in controlling cell survival and apoptosis, and Akt phosphorylation is increased by the activation of Tie-2. Akt activation can be detected by an antibody that recognizes phosphorylation on the serine 473 residue on Akt.
HUVECs were seeded at 500,000 cells/mL in chemically-defined basal media, and supplemented with distinct growth factors (EGM-2). The following growth factors were required for survival and normal phenotypic expression of endothelial characteristics: fetal bovine serum 2%, hydrocortisone, human fibroblast growth factor-B, vascular endothelial growth factor, recombinant insulin growth factor R3, ascorbic acid, human epidermal growth factor, gentamicin sulfate, amphotericin B, and heparin. Cells were derived from one donor, cultivated in 10 cm dishes, and expanded upon reaching 90% confluence. After three passages, the cells were expanded and ready for testing.
The cells were seeded at 25,000 cells/mL in 6-well plates, and covered with 2 mL of complete media. The cells were fed on day 2 of culture with 2 mL of fresh EGM-2 media. 72 hours after plating, the cells were serum starved by rinsing twice with 2 mL of sterile phosphate buffered saline, and then placed at 37° C. for 3 hours in the presence of basal EGM-2 media (1.5 mL/well without growth factors). The serum starvation allowed the cells to become quiescent.
Compounds 2-4 were dissolved in distilled deionized water at the following concentrations: • Compound 2 (Molecular weight: 622.7): 31 mg/ml. • Compound 3 (Molecular weight: 622.7): 26 mg/ml. • Compound 4 (Molecular weight: 636.7): 32 mg/ml.
All compounds were stored at 4° C. […] Stock concentrations of the above molecules were made at a final working concentration of 1 mM. Specific microliter volumes of the working concentration were added to each 6 well plate at the following concentrations: 3, 10, and 30 micromolar (μM). Cells were treated for 30 minutes.
10× cell lysis buffer was diluted fresh with dH2O. The 1× cell lysis buffer contained: 20 mM Tris-HCl (pH 7.5), 150 mM NaCl, 1 mM Na2EDTA, 1 mM EGTA, 1% Triton, 2.5 mM sodium pyrophosphate, 1 mM β-glycerophosphate, 1 mM Na3VO4, 1 μg/ml leupeptin, and 1 mM PMSF. Immediately before use, 1 mM PMSF was prepared by diluting from a stock of 1 M PMSF made up in DMSO. In addition, a 1× concentration of a Halt protease & phosphatase inhibitor cocktail was included. At the end of the 30 minute treatment, the media was discarded from the cell culture wells by shaking out, and the remaining media was aspirated off the wells. Ice-cold lysis buffer was added at 140 μL/well, and the culture was placed on ice or in a cold room for 30 minutes while rocking. Cell lysates were collected using a cell scraper, placed in microfuge tubes, and stored at −80° C. The levels of protein were quantitated using a microtiter plate BCA protein assay.
2× Laemmli sample buffer was added in equal volume to the […] cell lysis buffer, which contained the lysed endothelial cells. The solution was heated at 100° C. for 5 minutes and then sonicated for 10 seconds. After sonication, the lysates were spun by centrifuge at 4° C. for 5 minutes at 17,000 rpm. 70-100 μg of protein calculated from BCA assay prior to addition of 2× Laemmli sample were added per well of an 8% polyacrylamide gel.
Electrophoresis was performed at 150 volts for approximately 90 minutes at room temperature with 1× Laemmli running buffer. The proteins from the gel were transferred to nitrocellulose at 100 volts for 45 minutes on ice.
The nitrocellulose membranes were removed quickly without drying and placed in phosphate buffered saline (pH 7.3) with 1% nonfat dried milk. The membranes were blocked in the milk solution while rocking for 2 hours at room temperature or overnight at 4° C. […]

[4] = 50% diluted samples, room temperature, T = 4 weeks
[5] = undiluted samples, T = 0 (dry sample)
[6] = undiluted samples, room temperature, T = 5 weeks
[7] = undiluted samples, room temperature, T = 1 day
[8] = water, thermodynamic from solid, Before dilution, T = 0
[9] = water, thermodynamic from solid

Row | SMILES | HPLC purity [1, 4] [%] | HPLC purity [1, 5] [%] | HPLC purity [1, 6] [%] | HPLC purity [1, 7] [%] | Physical state of the preparation ([2]; 50% dilution, T = 4 weeks) | Physical state of the preparation ([2]; Before dilution, T = 0) | Amount (g) of compound added until saturation ([2]; room temperature) | Physical appearance [2] | Filtration [2] | solubility at 4 weeks ([2]; water) [mg/mL] | solubility at 0 weeks [2, 8] [mg/mL] | solubility [2, 9] [mg/mL] | Gelation or precipitation of undiluted solution [3] | Appearance of solution ([3]; T = 0) | Appearance of solution ([3]; T = 2 week) | Appearance of solution ([3]; T = 3 week) | Appearance of solution ([3]; T = 4 week) | Appearance of solution ([3]; T = 1 day) | Appearance of solution ([3]; T = 2 day) | Appearance of solution ([3]; T = 3 day) | further results
1 | COC(=O)N(C)[C@@H](Cc1ccccc1)C(=O)N[C@@H](Cc1ccc(NS(=O)(=O)[O-])cc1)c1csc(-c2cccs2)n1.[Na+] [Compound 2, sodium (4-{(S)-2-{(S)-2-[(methoxycarbonyl)(methyl)amino]-3-phenylpropanamido}-2-[2-(thiophen-2-yl)thiazol-4-yl]ethyl}phenyl)sulfamate] | 82 | 99.59 | 88.99 | 98.7 | (solution) *** | (suspension) | 2.53 g and 2.528 g | formed a suspension; also recorded: Precipitate | difficult and Yes | ~125 | ~250 | ~200 | gradually developed a precipitate | Clear | Precipitate | Precipitate | Precipitate | Clear | Clear | Slightly hazy | HPLC purity ([1]; 50% diluted samples, room temperature, T = 6 weeks (reanalysis)): 96.9% and 96.95%; HPLC purity ([1]; undiluted samples, room temperature, T = 7 weeks (reanalysis)): 93.9% and 93.93%; Concentration in clear filtrate as share of the concentration of the initial, supersaturated solution ([2]; suspension filtered through 0.22 micron filter after 5 weeks): 25%; solubility at 5 weeks ([2]; water, thermodynamic from solid, Before dilution, T = 5 weeks, room temperature): 49.5 mg/mL; Time until precipitation was observed ([3]; 50% diluted solution): about 2.5 months; Time until solution started to show haziness ([3]; undiluted solution): 3 days; Appearance of solution ([3]; T = 4 day): Small precipitate; Appearance of solution ([3]; T = 5 day): Small precipitate; Appearance of solution ([3]; T = 6 day): Precipitate; pAkt signal above control (phospho-Akt1 (pAkt); HUVECs, 30 μM, 30 minutes treatment): 300%; Relative potencies for activation of pAkt (phospho-Akt1 (pAkt)): Compound 2>Compound 4>Compound 3; Levels of pAkt (in words) (phospho-Akt1 (pAkt); HUVECs, sets statement at 30 μM): Noticeable and dose-dependent
2 | COC(=O)N(C)[C@@H](Cc1ccccc1)C(=O)N(C)[C@@H](Cc1ccc(NS(=O)(=O)[O-])cc1)c1csc(-c2cccs2)n1.[Na+] [Compound 4, sodium (4-{(S)-2-{(S)-2-[(methoxycarbonyl)(methyl)amino]-N-methyl-3-phenylpropanamido}-2-[2-(thiophen-2-yl)thiazol-4-yl]ethyl}phenyl)sulfamate] | 97.69 | 98.72 | 96.53 | 98.2 | (solution) | (solution) | 0.624 g | formed a suspension; also recorded: Precipitate | proceeded readily and Yes | 31 | 62 | ~58 | No gelation or precipitation | Clear | Clear | Clear | Clear | Clear | Clear | Clear | Solubility value in water ([2]; Before dilution, T = 5 weeks, room temperature): No change*; Appearance of solution ([3]; T = 4 day): Clear; Appearance of solution ([3]; T = 5 day): Clear; Appearance of solution ([3]; T = 6 day): Clear; Relative potencies for activation of pAkt (phospho-Akt1 (pAkt)): Compound 2>Compound 4>Compound 3
